The efflux ratio is a quotient of directional permeabilities that is used to spot active efflux. For orientation: Papp A→B means the apparent permeability from the apical to the basolateral side of a cell layer. The low end stands for slow passage, the high end for fast passage. As a reminder, the IC50 is the concentration that inhibits the measured activity by half.

This passage reports efflux ratio, Papp A→B and IC50 results from US20240317712A1, “[…] DERIVATIVES AS INHIBITORS OF […]-PEPTIDE CYCLOTRANSFERASE AND […]-PEPTIDE CYCLOTRANSFERASE LIKE PROTEIN” (Boehringer Ingelheim International GmbH, priority 2023, published 2024).

Series [1] is described as follows: Assay C: Permeability in CACO-2 cells. In kind it is in vitro ADME. The conditions noted are these: human, pH 7.2; for efflux ratio: Caco-2, permeability B−A/permeability A−B; for Papp A→B: Caco-2, apical to basolateral. Here is the method:
Caco-2 cells (1-2×10^5 cells/1 cm^2 area) are seeded on filter inserts (Costar transwell polycarbonate or PET filters, 0.4 μm pore size) and cultured (DMEM) for 10 to 25 days. Compounds are dissolved in appropriate solvent (like DMSO, 1-20 mM stock solutions). […] The transport solution (TL) is applied to the apical or basolateral donor side for measuring A-B or B-A permeability (3 filter replicates), respectively. Samples are collected at the start and end of experiment from the donor and at various time intervals for up to 2 hours also from the receiver side for concentration measurement by HPLC-MS/MS or scintillation counting. Sampled receiver volumes are replaced with fresh receiver solution.
Efflux ratio (ER)=permeability B−A/permeability A−B
(In general: Caco-2 cells form a polarised layer with tight junctions and transporters.)

A further series deals with T1, QPCT (Homo sapiens, UniProt Q16769).
T1 construct: purchased Origine (so in the source)
T1 sequence (Q16769 29-361): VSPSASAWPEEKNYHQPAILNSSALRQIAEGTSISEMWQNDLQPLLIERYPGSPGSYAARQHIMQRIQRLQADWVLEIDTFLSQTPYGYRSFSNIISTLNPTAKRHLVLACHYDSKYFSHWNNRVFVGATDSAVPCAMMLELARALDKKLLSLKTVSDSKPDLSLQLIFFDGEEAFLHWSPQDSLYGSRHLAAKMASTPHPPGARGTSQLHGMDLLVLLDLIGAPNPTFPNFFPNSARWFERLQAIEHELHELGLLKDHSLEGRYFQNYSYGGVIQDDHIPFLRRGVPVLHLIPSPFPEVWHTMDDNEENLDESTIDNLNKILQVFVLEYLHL
Kind of series: Assay A: biochemical QPCT activity assay (MALDI-TOF MS, CD47 peptide substrate). The following applies: 0.5 nM enzyme, 20 μM CD47 peptide substrate; read-out: Inhibition of QPCT: IC50. Here is the method: (§1) QPCT or QPCTL dependent conversion of N-terminal glutamine to pyroglutamate of CD47 was monitored via MALDI-TOF MS. Test compounds were dissolved in 100% DMSO and serially diluted into clear 1,536-well microtiter plates. Enzymatic reactions were set up in assay buffer containing 20 mM Tris pH 7.5, 0.1 mM TCEP, 0.01% BSA, and 0.001% Tween20. […] The plates were incubated for 10 min in a humidified incubator at 24° C. Subsequently, 2.5 µL of CD47 peptide substrate surrogate (^19[…]^33) was added to each well (final concentration: 10 μM for QPCTL/20 μM for QPCT). The plates were mixed for 30 sec at 1,000 rpm and subsequently incubated for 40 min in a humidified incubator at 24° C. […] The plates were sealed with an adhesive foil, mixed for 30 s at 1,000 rpm and stored at room temperature until preparation of the MALDI target plates. MALDI target plates were prepared as described previously. […] QPCT or QPCTL activity was monitored by calculating the ratio between product and internal standard signals followed by normalization to high (100% activity) and low (0% activity) controls. Determination of compound potencies was obtained by fitting the dose-response data to a four-parameter logistical equation.

The test system of series [2] is SIRPα signalling induced by Raji cells. The experiment in a line: Assay B: SIRPα signalling assay using Raji cells. The conditions noted are these: Homo sapiens, 48 h compound incubation, Jurkat PathHunter SIRPaV1 reporter cells, read-out: Inhibition of SIRPα signalling induced by Raji cells: IC50. In kind it is cell-based. As for the experimental part: (§2) Two cell types are independently used: the Raji cell line (lymphoblast-like human cell line derived from B lymphocytes from a Burkitt's lymphoma patient in 1963) and A549 cells (adenocarcinoma human alveolar basal epithelial cells).
(§3) Test compounds were dissolved in 100% DMSO and serially diluted into a white 384-well microtiter cell culture plate (PerkinElmer #60076780 in case of Raji assay; PDL-coated plates Greiner #781945 in case of A549 assay), 5000 Raji cells (ATCC #CC86) or 5000 A549 cells (ATCC #CCL-185) in Assay Complete Cell Plating reagent 30 (DiscoverX 93-0563R30B) were added per well. The assay plate was incubated for 48 h at 37° C., 95% humidity and 5% CO2. 15000 reporter cells (Jurkat PathHunter SIRPaV1, DiscoverX #93-1135C19) were added to each well, and the plate was incubated for 5 h at 37° C., 95% humidity and 5% CO2. Bioassay reagent 1 of the PathHunter Bioassay detection kit (DiscoverX 93-0001) was added to each well of the plate using a multichannel pipette followed by a 15 min incubation at room temperature. Afterwards bioassay reagent 2 was added followed by 60 min incubation at room temperature (incubation in the dark). The analysis of the data was performed using the luminescence signal generated by beta-galactosidase in the PathHunter reporter cell line. The luminescence measurement was done using a Pherastar Multi-Mode Reader. Dose-response curves & IC50 data were calculated with 4-parameter sigmoidal dose response formula.

In another series the target is T2, QPCTL (Homo sapiens, UniProt Q9NXS2).
T2 construct: made in house
T2 sequence (Q9NXS2 whole entry): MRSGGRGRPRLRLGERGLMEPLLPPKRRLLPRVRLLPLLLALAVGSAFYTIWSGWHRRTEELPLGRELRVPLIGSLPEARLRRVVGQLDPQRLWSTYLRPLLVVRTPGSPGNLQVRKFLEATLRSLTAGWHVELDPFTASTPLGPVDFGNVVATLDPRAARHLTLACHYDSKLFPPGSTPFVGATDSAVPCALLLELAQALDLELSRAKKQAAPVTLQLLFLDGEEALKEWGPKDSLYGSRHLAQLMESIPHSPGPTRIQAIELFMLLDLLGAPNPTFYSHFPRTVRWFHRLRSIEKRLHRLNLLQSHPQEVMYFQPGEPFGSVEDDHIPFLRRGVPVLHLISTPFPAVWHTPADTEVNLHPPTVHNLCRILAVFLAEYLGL
Kind of series: Assay A: biochemical QPCTL activity assay (MALDI-TOF MS, CD47 peptide substrate). The following applies: 0.5 nM enzyme, 10 μM CD47 peptide substrate; read-out: Inhibition of QPCTL: IC50. As for the experimental part: as §1

Series [3] has as its system SIRPα signalling induced by A549 cells. The experiment in a line: Assay B: SIRPα signalling assay using A549 cells. Type of series: cell-based. The following applies: Homo sapiens, 48 h compound incubation, Jurkat PathHunter SIRPaV1 reporter cells, read-out: Inhibition of SIRPα signalling induced by A549 cells: IC50. Here is the method:
as §2, §3

For the compound `Cn1cnnc1C1(F)CCN(c2c(C#N)cc(C(F)(F)F)cc2-c2cnc3nn(C(C)(C)C)cc3c2)CC1` [Example 1], the efflux ratio in series [1] stood at 3.2. Further, the Papp A→B in series [1] amounted to 25 ×10⁻⁶ cm/s. The 50% inhibitory concentration (IC50) on QPCT was determined as 1 nM; in series [2], 5 nM; at QPCTL, 1 nM; in series [3], 11 nM.

With `Cn1cnnc1C1(F)CCN(c2c(C#N)cc(C(F)(F)F)cc2-c2cnc3nc(C(C)(C)C)nn3c2)CC1` [Example 2], in series [1], the efflux ratio worked out at 6.9. Also, in series [1], the Papp A→B is 8.9 ×10⁻⁶ cm/s. Moreover, the IC50 at QPCT was 1 nM; in series [2] it was 14 nM; on QPCTL it was 2 nM; in series [3], 7 nM.

Take `Cn1cnnc1C1CCN(c2c(C#N)cc(C(F)(F)F)cc2-c2ccc(F)nc2)CC1` [Example 3]: the efflux ratio in series [1] came out at 10.4. In addition, the Papp A→B in series [1] worked out at 9 ×10⁻⁶ cm/s. The IC50 was 12 nM on QPCT, 19 nM in series [2], 3 nM at QPCTL and 12 nM in series [3].

Regarding `Cn1cnnc1C1(F)CCN(c2c(C#N)cc(C(F)(F)F)cc2-c2ccc(F)nc2)CC1` [Example 4], the efflux ratio in series [1] came out at 1.3. In addition, the Papp A→B in series [1] worked out at 40.5 ×10⁻⁶ cm/s. Further, the IC50 turned out to be 4 nM on QPCT, 17 nM in series [2], 2 nM on QPCTL and 12 nM in series [3].

As to `Cn1cnnc1C1(F)CCN(c2c(C#N)cc(C(F)(F)F)cc2-c2ccnnc2)CC1` [Example 5], in series [1], the efflux ratio turned out to be 10.3. This compound yielded a Papp A→B in series [1] of 3.3 ×10⁻⁶ cm/s. Besides, the IC50 on QPCT was determined as 3 nM; in series [2], 19 nM; on QPCTL, 2 nM; in series [3], 21 nM.

Consider `Cn1cnnc1C1(F)CCN(c2c(C#N)cc(F)cc2-c2ccc(F)nc2)CC1` [Example 6], for which the efflux ratio in series [1] worked out at 1.6. The compound further came in with a Papp A→B in series [1] of 44 ×10⁻⁶ cm/s. Further, the IC50 was determined as 4 nM at QPCT, 47 nM in series [2], 3 nM at QPCTL and 16 nM in series [3].

Consider `Cn1cnnc1C1CCN(c2c(C#N)cc(F)cc2-c2ccc(F)nc2)CC1` [Example 7], for which the efflux ratio in series [1] came to 2.1. This compound came in with a Papp A→B in series [1] of 24 ×10⁻⁶ cm/s. Further, the IC50 at QPCT was 10 nM; in series [2] it was 48 nM; on QPCTL it was 2 nM; in series [3] it was 18 nM.

For `COc1ccc(C#N)c(N2CCC(c3nncn3C)CC2)c1-c1ccc(F)nc1` [Example 8], in series [1], the efflux ratio came to 4.4. Besides, the Papp A→B in series [1] is 8.5 ×10⁻⁶ cm/s. The IC50 worked out at 3 nM on QPCT, 44 nM in series [2], 1 nM at QPCTL and 11 nM in series [3].

Turning to `COc1ccc(C#N)c(N2CCC(F)(c3nncn3C)CC2)c1-c1ccc(F)nc1` [Example 9], the efflux ratio in series [1] worked out at 1.9. Further, the Papp A→B in series [1] came to 28 ×10⁻⁶ cm/s. The half-inhibitory concentration (IC50) at QPCT turned out to be 1 nM; in series [2] it was 35 nM; on QPCTL, 1 nM; in series [3], 6 nM.

Turning to `CC(C)Oc1ccc(C#N)c(N2CCC(c3nncn3C)CC2)c1-c1ccc(F)nc1` [Example 10], in series [1], the efflux ratio stood at 2.4. Besides, the Papp A→B in series [1] was 30 ×10⁻⁶ cm/s. Further, the concentration for half-maximal inhibition (IC50) at QPCT was found to be 1 nM; in series [2], 52 nM; at QPCTL, 1 nM; in series [3], 9 nM.

In the case of `Cn1cnnc1C1CCN(c2c(C#N)ccc(OCC3CC3)c2-c2ccc(F)nc2)CC1` [Example 11], the efflux ratio in series [1] worked out at 3.2. The compound also displayed a Papp A→B in series [1] of 28 ×10⁻⁶ cm/s. The IC50 was found to be 2 nM on QPCT, 44 nM in series [2], 1 nM on QPCTL and 43 nM in series [3].

As for `Cn1cnnc1C1CCN(c2c(C#N)ccc(OCc3ccccc3)c2-c2ccc(F)nc2)CC1` [Example 12], the efflux ratio in series [1] was found to be 2.6. Further, in series [1], the Papp A→B was determined as 19 ×10⁻⁶ cm/s. For the same compound, the IC50 came to 1 nM at QPCT, 20 nM in series [2], 1 nM at QPCTL and 14 nM in series [3].

`Cn1cnnc1C1CCN(c2c(C#N)ccc(OC(F)F)c2-c2ccc(F)nc2)CC1` [Example 13]: the efflux ratio in series [1] turned out to be 3.6. The Papp A→B in series [1] was 9.1 ×10⁻⁶ cm/s. Moreover, the IC50 was 2 nM on QPCT, 96 nM in series [2], 2 nM on QPCTL and 27 nM in series [3].

For `Cn1cnnc1C1CCN(c2c(-c3ccc(F)nc3)ccc(F)c2C#N)CC1` [Example 14], the efflux ratio in series [1] turned out to be 6.7. Also, the Papp A→B in series [1] was found to be 9.6 ×10⁻⁶ cm/s. Further, the IC50 at QPCT is 11 nM; in series [2], 124 nM; on QPCTL, 2 nM; in series [3], 24 nM.

Take `COC(=O)c1cc(C#N)c(N2CCC(c3nncn3C)CC2)c(-c2ccc(F)nc2)c1` [Example 15]: in series [1], the efflux ratio stood at 9.2. Moreover, in series [1], the Papp A→B came out at 5.3 ×10⁻⁶ cm/s. The IC50 on QPCT stood at 12 nM; in series [2] it was 312 nM; at QPCTL it was 3 nM; in series [3], 218 nM.

As to `Cn1cnnc1C1CCN(c2c(C#N)cc(Cl)cc2-c2ccc(F)nc2)CC1` [Example 16], in series [1], the efflux ratio worked out at 3.3. This compound also came in with a Papp A→B in series [1] of 23 ×10⁻⁶ cm/s. For the same compound, the IC50 on QPCT amounted to 8 nM; in series [2], 30 nM; at QPCTL, 2 nM; in series [3], 18 nM.

For `Cn1cnnc1C1CCN(c2c(C#N)cc(Cl)cc2-c2cnc3nn(C(C)(C)C)cc3c2)CC1` [Example 17], in series [1], the efflux ratio was 21.2. Moreover, in series [1], the Papp A→B stood at 2.5 ×10⁻⁶ cm/s. In addition, the IC50 on QPCT is 1 nM; in series [2], 17 nM; at QPCTL, 1 nM; in series [3] it was 5 nM.

Regarding `Cn1cnnc1C1(F)CCN(c2c(C#N)cc(Cl)cc2-c2ccc(F)nc2)CC1` [Example 18], the efflux ratio in series [1] worked out at 1. The same compound showed a Papp A→B in series [1] of 66 ×10⁻⁶ cm/s. Moreover, the IC50 on QPCT came to 4 nM; in series [2], 36 nM; at QPCTL it was 2 nM; in series [3], 24 nM.

As to `Cn1cnnc1C1(F)CCN(c2c(C#N)cc(Cl)cc2-c2cnc3nn(C(C)(C)C)cc3c2)CC1` [Example 19], the efflux ratio in series [1] is 4.5. This compound also yielded a Papp A→B in series [1] of 18 ×10⁻⁶ cm/s. The IC50 was 1 nM on QPCT, 9 nM in series [2], 1 nM at QPCTL and 9 nM in series [3].

Consider `Cn1cnnc1C1(F)CCN(c2c(-c3cnc4nn(C(C)(C)C)cc4c3)ccc(OCCC(C)(C)O)c2C#N)CC1` [Example 34], for which the figures for the IC50 (in series [2]; on QPCTL; in series [3]) were 36 nM, 1 nM and 73 nM, respectively.

Turning to `Nc1ncc(C2CCN(c3ncccc3-c3ccc(F)nc3)CC2)s1` [Prior art Compound 1094, reference compound], the IC50 on QPCT was 1710 nM; on QPCTL, 111 nM; in series [3] it was 3060 nM.

For `Nc1nnc(C2CCN(c3ncccc3-c3ccc(F)nc3)CC2)s1` [Prior art Compound 1095, reference compound], the values for the IC50 on QPCT and at QPCTL were 260 nM and 13 nM, respectively.

As to `Cn1cnnc1C1CCN(c2ncccc2-c2cccnc2)CC1` [SEN180, reference compound], on QPCT, the IC50 was found to be 176 nM.
